Results taken from patent publication US12102659B2, “Methods for the prevention or treatment of heart failure” (Cornell University, priority 2009, dated 2024).
Square brackets hold non-standard residues; d marks the D form. Ends that are not written are not given here.

How the values were obtained:
mu-opioid receptor = mu-opioid receptor (Homo sapiens, UniProt P35372); assay: mu-opioid receptor agonist activity (stated, no method); type: biochemical; conditions: stated in the description, no test described
neonatal cardiomyocytes = assay: Mitosox flow cytometry of mitochondrial ROS in neonatal cardiomyocytes stimulated with Ang II; type: cell-based, mouse; conditions: for effect on Ang II-induced Mitosox fluorescence / mitochondrial ROS: SS-31 1 nM or NAC 0.5 mM together with Ang II 1 μM for 3 hours
Description: Neonatal mouse cardiomyocyte culture and flow cytometry. Ventricles from mouse neonates younger than 72 hours were dissected, minced, and enzymatically digested with Blendzyme 4 (45 μg/ml, Roche). After enzymatic digestion, cardiomyocytes were enriched using differential pre-plating for 2 hours, then seeded on fibronectin-coated culture dishes for 24 hours in DMEM (Gibco), with 20% Fetal Bovine Serum (Sigma) and 25 μM Arabinosylcytosine (Sigma). Cardiomyocytes were stimulated with Angiotensin II (1 μM) for 3 hours in serum-free DMEM containing 0.5% insulin transferrin-selenium (Sigma), 2 mM glutamine, and 1 mg/ml of BSA. Cardiomyocytes were simultaneously treated with either of the following: SS-31 (1 nM), N-acetyl cysteine (NAC: 0.5 mM), or PBS control. To measure mitochondrial superoxide concentration, Mitosox (5 μM) was incubated for 30 min at 37° C. to load cardiomyocytes, followed by 2 washes, with Hanks Balanced Salt Solution. Samples were analyzed using excitation/emission of 488/625 nm by flow cytometry. Flow data was analyzed using FCS Express (De Novo Software, Los Angeles, CA), and presented as histogram distributions of Mitosox fluorescence intensity.

C57BL6 mice [1] = assay: Blood pressure by intravascular telemetry after pressor dose of Ang II; type: in vivo, mouse
Description: (§1) Mouse experiments, drug delivery, echocardiography and blood pressure measurement. All animal experiments were approved by the University of Washington Institutional Animal Care and Use Committee. C57BL6 mice were housed in a barrier specific pathogen-free facility. Six to ten mice were included in each experimental group (Saline, Ang II, Ang II+SS-31, WT, Gαq, Gαq+SS-31). A pressor dose of Ang II (1.1 mg/kg/d) was continuously administered for 4 weeks using subcutaneous Alzet 1004 osmotic minipumps, with or without addition of SS-31 (3 mg/kg/d). Echocardiography was performed at baseline and after 4 weeks of pump implantation using a Siemens Acuson CV-70 equipped with a 13 MHz probe. Under 0.5% isoflurane to reduce agitation, standard M-mode, conventional and Tissue Doppler images were taken, and functional calculations were performed according to American Society of Echocardiography guidelines. MP1 was calculated as the ratio of the sum of isovolemic contraction and relaxation time to LV ejection time. An increase in MPI is an indication that a greater fraction of systole is spent to cope with the pressure changes during the isovolemic phases. As a reference for SS-31 peptide effect in Ang II treated mice, a genetic mouse model of Rosa-26 inducible-mCAT was included, in which mitochondrial catalase was overexpressed two weeks before Ang II treatment.
Blood pressure was measured in a separate group of mice by telemetry using an intravascular catheter PA-C10 (DSI, MN), in which measurement was performed every three hours starting from 2 days before pump placement until 2 days after Ang pump placement.

C57BL6 mice [2] = assay: Ang II-induced cardiomyopathy: echocardiography and heart weight after 4 weeks; type: in vivo, mouse; conditions: for Ea/Aa / LVMI: 4 weeks Ang II 1.1 mg/kg/d with or without SS-31 3 mg/kg/d; for heart weight (normalized to tibia length): 4 weeks Ang II with or without SS-31, saline 5.3±0.18; for change in LV end diastolic diameter (LVEDD) / change in fractional shortening (FS, systolic function): in the presence or absence of SS-31
Description: as §1

[3] = tested on: ANP, Collagen 1a2, PGC1-α, TFAM, NRF-1, NRF-2; assay: Quantitative PCR of cardiac gene expression after 4 weeks of Ang II; type: in vivo, mouse; conditions: for expression of PGC-1α and downstream target genes TFAM, NRF-1 and NRF-2: 4 weeks Ang II (vs. saline) or Ang II + SS-31 (vs. Ang II)
Description: as §1
(§2) Quantitative PCR. Gene expression was quantified by quantitative real time PCR using an Applied Biosystems 7900 themocycler with Taqman Gene Expression Assays on Demand, which included: PGC1-α (Mm00731216), TFAM (Mm00447485), NRF-1 (Mm00447996), NRF-2 (Mm00487471), Collagen 1a2 (Mm00483937), and ANP (Mm01255747). Expression assays were normalized to 18S RNA.

C57BL6 mice [4] = assay: Quantitative pathology of ventricular fibrosis (Masson Trichrome) after 4 weeks of Ang II; type: in vivo, mouse
Description: as §1, with “As a reference for SS-31 peptide effect in Ang II treated mice, a genetic mouse model of Rosa-26 inducible-mCAT was included, in which mitochondrial catalase was overexpressed two weeks before Ang II treatment.” left out
Quantitative Pathology. […] Quantitative analysis of fibrosis was performed by measuring the percentage of blue-staining fibrotic tissue relative to the total cross-sectional area of the ventricles.

[5] = tested on: mitochondrial protein carbonyl groups; assay: Cardiac mitochondrial protein carbonyl ELISA after 4 weeks of Ang II; type: in vivo, mouse; conditions: 4 weeks Ang II (vs. saline) or Ang II + SS-31 (vs. Ang II)
Description: as §1, with “treatment. […]” for “treatment.”

NADPH oxidase = NADPH oxidase activity in ventricular protein extract after 4 weeks of Ang II; type: in vivo, mouse; conditions: 4 weeks Ang II (vs. saline) or Ang II + SS-31 (vs. Ang II)
Description: as §1, with “An increase in MPI is an indication that a greater fraction of systole is spent to cope with the pressure changes during the isovolemic phases. As a reference for SS-31 peptide effect in Ang II treated mice, a genetic mouse model of Rosa-26 inducible-mCAT was included, in which mitochondrial catalase was overexpressed two weeks before Ang II treatment.” left out
NADPH Oxidase activity. […] In brief, […] of ventricular protein extract was incubated with dihydroethidium (DHE, 10 μM), sperm DNA (1.25 μg/ml), and NADPH (50 μM) in PBS/DTPA (containing 100 μM DTPA), The assay was incubated at 37° C. in the dark for 30 min and the fluorescence was detected using excitation/emission of 490/580 nm.

[6] = tested on: cleaved caspase-3, phospho-p38 MAP kinase, p38; assay: Western immunoblots of cardiac protein extracts after 4 weeks of Ang II; type: in vivo, mouse; conditions: for phosphorylation of p38 MAPK: 4 weeks Ang II (vs. saline) or Ang II + SS-31 (vs. Ang II)
Description: as §1
Western Immunoblots. Cardiac protein extracts were prepared by homogenization in lysis buffer containing protease and phosphatase inhibitors on ice (1.5 mM KCl, 50 mM Tris HCl, 0.125% Sodium deoxycholate, 0.375% Triton X 100, 0.15% NP40, 3 mM EDTA). The samples were sonicated and centrifuged at 10,000 g for 15 min in 4° C. The supernatant was collected and the concentration was determined using a BCA assay (Pierce Thermo Scientific, Rockford, IL). Total protein (25 μg) was separated on NuPAGE 4-12% Bis-Tris gel (Invitrogen) and transferred to 0.45 μm PVDF membrane (Millipore), and then blocked in 5% non-fat dry milk in Tris-buffer solution with 0.1% Tween-20 for 1 hour. Primary antibodies were incubated overnight, and secondary antibodies were incubated for 1 hour. The primary antibodies included: rabbit monoclonal anti-cleaved caspase-3 (Cell Signaling), mouse monoclonal anti-GAPDH (Millipore), rabbit polyclonal phospho-p38 MAP kinase (Cell Signaling), and mouse monoclonal anti-p38 (Santa Cruz Biotechnology). The enhanced chemiluminescence method (Thermo Scientific) was used for detection. Image Quant ver.2.0 was used to quantified the relative band density as a ratio to GAPDH (internal control). All samples were normalized to the same cardiac protein sample.

Gαq overexpressing mice = assay: Gαq overexpression-induced heart failure: echocardiography, organ weights, fibrosis, qPCR, protein carbonyls; type: in vivo, mouse
Description: as §1
Quantitative Pathology. Ventricular tissues were cut into transverse slices, and subsequently embedded with paraffin, sectioned, and subjected to Masson Trichrome staining. Quantitative analysis of fibrosis was performed by measuring the percentage of blue-staining fibrotic tissue relative to the total cross-sectional area of the ventricles.
Measurement of mitochondrial protein carbonyl groups. For mitochondrial protein extraction, ventricular tissues were homogenized in mitochondrial isolation buffer (1 mM EGTA, 10 mM HEPES, 250 mM sucrose, 10 mM Tris-HCl, pH 7.4). The lysates were centrifuged for 7 min at 800 g in 4° C. The supernatants were then centrifuged for 30 min at 4000 g in 4° C. The crude mitochondria pellets were resuspended in small volume of mitochondrial isolation buffer, sonicated on ice to disrupt the membrane, and treated with 1% streptomycin sulfate to precipitate mitochondrial nucleic acids. The OxiSelect™ Protein Carbonyl ELISA Kit (Cell Biolabs) was used to analyze 1 μg of protein sample per assay. The ELISA was performed according to the instruction manual, with slight modification. Briefly, protein samples were reacted with dinitrophenylhydrazine (DNPH) and probed with anti-DNPH antibody, followed by HRP conjugated secondary antibody. The anti-DNPH antibody and HRP conjugated secondary antibody concentrations were 1:2500 and 1:4000, respectively.
as §2

[7] = tested on: several mammalian cell types; conditions: energy-independent manner; cited from earlier work
[8] = Ang II 1.1 mg/kg/d subcutaneous pump, FIG. 2B
[9] = Ang+SS-31 (3 mg/kg/d) vs. Ang, 4 weeks
[10] = SS-31 3 mg/kg/d with Ang II, 4 weeks
[11] = Gαq mice, SS-31 3 mg/kg/d for 4 weeks

Sequence of mu-opioid receptor (P35372 whole entry, species assumed): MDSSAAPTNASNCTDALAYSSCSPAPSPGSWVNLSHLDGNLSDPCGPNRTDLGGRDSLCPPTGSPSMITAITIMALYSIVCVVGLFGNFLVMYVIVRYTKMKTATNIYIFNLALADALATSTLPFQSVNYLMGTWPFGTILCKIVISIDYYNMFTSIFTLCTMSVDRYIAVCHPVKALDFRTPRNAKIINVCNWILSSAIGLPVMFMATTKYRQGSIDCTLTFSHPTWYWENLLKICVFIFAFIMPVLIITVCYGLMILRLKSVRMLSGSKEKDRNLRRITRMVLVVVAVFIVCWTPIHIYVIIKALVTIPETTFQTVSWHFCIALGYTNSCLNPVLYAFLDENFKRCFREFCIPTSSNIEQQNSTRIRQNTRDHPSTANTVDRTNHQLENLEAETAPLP

F[dR]FK-NH2 [SS-20]
mu-opioid receptor agonist activity (mu-opioid receptor): does not have mu-opioid receptor agonist activity

Angiotensin II [Ang II]
increase of Mitosox fluorescence (indicator of mitochondrial superoxide) (neonatal cardiomyocytes; Ang II 1 μM, 3 hours, neonatal cardiomyocytes): approximately 2 fold
increase in systolic and diastolic blood pressure above baseline (C57BL6 mice [1]; Ang II 1.1 mg/kg/d): 25-28 mm Hg
increase in diastolic pressure (C57BL6 mice [1]; [8]): 24.8 mm Hg
increase in systolic blood pressure (C57BL6 mice [1]; [8]): 27.2 mm Hg
diastolic blood pressure after Ang II (C57BL6 mice [1]; Ang II 1.1 mg/kg/d, baseline 94.5±3.5): 119.3±4.0 mm Hg
Ea/Aa (C57BL6 mice [2]): 0.723±0.15
LVMI (C57BL6 mice [2]): 6.32 ± 0.39 mg/g
heart weight (normalized to tibia length) (C57BL6 mice [2]): 7.69±0.20 mg/mm
increase in heart weights above saline treated control hearts (C57BL6 mice [2]; 4 weeks of Ang II): 45%
decline in Ea/Aa (diastolic function) (C57BL6 mice [2]; 4 weeks of Ang II 1.1 mg/kg/d): ~35%
increase in left ventricular mass index (LVMI) compared with baseline (C57BL6 mice [2]; 4 weeks of Ang II 1.1 mg/kg/d): approximately 2 fold
change in LV end diastolic diameter (LVEDD) (C57BL6 mice [2]; 4 weeks of Ang II): no change
change in fractional shortening (FS, systolic function) (C57BL6 mice [2]; 4 weeks of Ang II): no change
expression of PGC-1α and downstream target genes TFAM, NRF-1 and NRF-2 [3]: induced the expression
increase in ANP gene expression ([3]; 4 weeks of Ang II): ~15 fold
increase in Coll1a2 gene expression ([3]; 4 weeks of Ang II): ~2.5 fold
increase in ventricular fibrosis (blue staining on trichrome) (C57BL6 mice [4]; 4 weeks of Ang II): greater than 3 fold
ventricular mitochondrial protein carbonyl content [5]: significantly increased
cardiac NADPH oxidase activity (NADPH oxidase): significantly increased
phosphorylation of p38 MAPK [6]: increased
increase in cleaved (activated) caspase-3 in left ventricular tissue ([6]; 4 weeks of Ang II): approximately 3 fold
protein levels of p38 MAP kinase ([6]; 4 weeks of Ang II, FIG. 6C): increased

D-Arg-2′,6′-Dmt-Lys-Phe-NH2 [SS-31]
effect on Ang II-induced Mitosox fluorescence / mitochondrial ROS (neonatal cardiomyocytes): reduced Ang II-induced mitosox fluorescence to the level similar to that of saline treated cardiomyocytes
effect on blood pressure (C57BL6 mice [1]; SS-31 3 mg/kg/d simultaneously with Ang II 1.1 mg/kg/d): did not show any effect
Ea/Aa (C57BL6 mice [2]): 1.17±0.11
LVMI (C57BL6 mice [2]): 4.21 ± 0.17 mg/g
heart weight (normalized to tibia length) (C57BL6 mice [2]): 6.05±0.135 mg/mm
change in LV end diastolic diameter (LVEDD) (C57BL6 mice [2]; 4 weeks of Ang II): not significantly changed
change in fractional shortening (FS, systolic function) (C57BL6 mice [2]; 4 weeks of Ang II): not significantly changed
better preservation of Ea/Aa (C57BL6 mice [2]; [9]): 38%
reduction of LVMI (C57BL6 mice [2]; [9]): 33%
expression of PGC-1α and downstream target genes TFAM, NRF-1 and NRF-2 [3]: fully prevent the upregulation
effect on Ang II-induced ANP gene expression [3, 10]: almost completely protected
effect on Ang II-induced Coll1a2 gene expression [3, 10]: almost fully attenuated
effect on Ang II-induced ventricular fibrosis (C57BL6 mice [4]; [10]): fully attenuated
ventricular mitochondrial protein carbonyl content [5]: significantly reduced
cardiac NADPH oxidase activity (NADPH oxidase): not changed
phosphorylation of p38 MAPK [6]: significantly and nearly fully attenuated
effect on activation of caspase-3 caused by Ang II [6, 10]: completely prevented
cardiac enlargement (normalized heart weight) (Gαq overexpressing mice; Gαq mice at 16 weeks of age, SS-31 3 mg/kg/d for 4 weeks): substantially reduced
increase in lung weights (lung congestion) (Gαq overexpressing mice; Gαq mice at 16 weeks of age, SS-31 3 mg/kg/d for 4 weeks, borderline significance p=0.09): slightly attenuated
cardiac expression of Coll1a2 gene (Gαq overexpressing mice; Gαq mice, 4 weeks of SS-31 treatment): not significantly altered
Gαq overexpression-induced heart failure (phenotype overall) (Gαq overexpressing mice; [11]): partially rescued
cardiac mitochondrial protein carbonyls (Gαq overexpressing mice; [11]): significant reduction
ventricular fibrosis (Gαq overexpressing mice; [11]): not changed
myocardial performance (MPI) (Gαq overexpressing mice; Gαq mice, SS-31 3 mg/kg/d from 12 to 16 weeks of age): improved
systolic function (FS) (Gαq overexpressing mice; Gαq mice, SS-31 3 mg/kg/d from 12 to 16 weeks of age, vs. untreated Gαq): significantly ameliorated
Ea/Aa (diastolic function) (Gαq overexpressing mice; Gαq mice, SS-31 3 mg/kg/d from 12 to 16 weeks of age, borderline significance p=0.06): better preserved
LV chamber enlargement (Gαq overexpressing mice; Gαq mice, SS-31 3 mg/kg/d from 12 to 16 weeks of age, p=0.08): slightly reduced
mu-opioid receptor agonist activity (mu-opioid receptor): does not have mu-opioid receptor agonist activity

CC(=O)N[C@@H](CS)C(=O)O [N-acetyl cysteine]
effect on Ang II-induced Mitosox fluorescence / mitochondrial ROS (neonatal cardiomyocytes): did not show any effect

2′,6′-Dmt-D-Arg-Phe-Lys-NH2 [SS-02]
penetration of the plasma membrane [7]: readily penetrates the plasma membrane

Tyr-D-Arg-Phe-Lys-NH2 [SS-01]
mu-opioid receptor agonist activity (mu-opioid receptor): has mu-opioid receptor agonist activity
